Experimental findings from patent US20110160180A1, “Cannabinoid Receptor Ligands” (ASTRAZENECA AB, priority 2008, published 2011) are described below.

The target in this assay is Human CB1 receptor (hCB1) (Homo sapiens, UniProt P21554). Description: hCB1 GTPγS binding. Type of assay: biochemical. As to conditions: hCB1 membranes, GTPg35S binding; maximal stimulated binding determined with 10 μM Win 55,212-2. As for the experimental part: hCB1 and hCB2GTPγS Binding
Human CB1 receptor from Receptor Biology (hCB1) or human CB2 receptor membranes (BioSignal) are thawed at 37° C., passed 3 times through a 25-gauge blunt-end needle and diluted in the GTPγS binding buffer (50 mM Hepes, 20 mM NaOH, 100 mM NaCl, 1 mM EDTA, 5 mM MgCl2, pH 7.4, 0.1% BSA). […] The basal and maximal stimulated binding is determined in absence and presence of 1 μM (hCB2) or 10 μM (hCB1) Win 55,212-2 respectively. The membranes are pre-incubated for 5 minutes with 56.25 μM (hCB2) or 112.5 μM (hCB1) GDP prior to distribution in plates (15 μM (hCB2) or 30 μM (hCB1) GDP final). The plates are vortexed and incubated for 60 minutes at room temperature, filtered on Unifilters GF/B (presoaked in water) with the Tomtec or Packard harvester using 3 ml of wash buffer (50 mM Tris, 5 mM MgCl2, 50 mM NaCl, pH 7.0). The filters are dried for 1 hour at 55° C. The radioactivity (cpm) is counted in a TopCount (Packard) after adding 65 μl/well of MS-20 scintillation liquid. Antagonist reversal studies are done in the same way except that (a) an agonist dose-response curve is done in the presence of a constant concentration of antagonist, or (b) an antagonist dose-response curve is done in the presence of a constant concentration of agonist.

Molecules are shown by their SMILES. Values joined by “and” are separate entries in the source; they are usually repeats but may differ in a detail not shown here. Equal values may be shown once.

Sequence of Human CB1 receptor (hCB1) (P21554 whole entry): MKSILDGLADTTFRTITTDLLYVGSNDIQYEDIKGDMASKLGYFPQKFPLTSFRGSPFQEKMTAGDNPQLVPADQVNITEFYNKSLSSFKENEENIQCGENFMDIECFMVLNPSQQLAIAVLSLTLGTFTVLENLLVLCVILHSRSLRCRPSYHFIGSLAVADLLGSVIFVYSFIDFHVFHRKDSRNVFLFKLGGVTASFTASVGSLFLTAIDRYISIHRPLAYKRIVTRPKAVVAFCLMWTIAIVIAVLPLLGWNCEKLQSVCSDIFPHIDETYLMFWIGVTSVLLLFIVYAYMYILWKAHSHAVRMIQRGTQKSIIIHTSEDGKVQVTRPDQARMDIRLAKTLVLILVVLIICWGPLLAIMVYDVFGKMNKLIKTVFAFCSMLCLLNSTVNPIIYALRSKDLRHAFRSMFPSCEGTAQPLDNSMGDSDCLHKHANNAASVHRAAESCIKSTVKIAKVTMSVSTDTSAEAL

Consider `CCN(CC(=O)NCCF)C(=O)c1ccc2c(c1)c1c(n2C)CCC(C2CCOCC2)C1` (centres unmarked) [N-ethyl-N-(2-fluoroethylcarbamoylmethyl)-9-methyl-6-(oxan-4-yl)-5,6,7,8-tetrahydrocarbazole-3-carboxamide], for which the “hCB1 EMax” value was 119% and 111%. With `Cn1c2c(c3cc(C(=O)N4CC[C@H](C(=O)NCCF)C4)ccc31)CC(C1CCOCC1)CC2` (stereo partly drawn) [(3S)-N-(2-fluoroethyl)-1-[9-methyl-6-(oxan-4-yl)5,6,7,8-tetrahydrocarbazole-3-carbonyl]pyrrolidine-3-carboxamide] the figure was 113%; with `CN(CCCC(=O)NCCF)C(=O)c1ccc2c(c1)c1c(n2C)CCC(C2CCOCC2)C1` (centres unmarked) [N-[3-(2-fluoroethylcarbamoyl)propyl]-N,9-dimethyl-6-(oxan-4-yl)-5,6,7,8-tetrahydrocarbazole-3-carboxamide], 131% and 112%; with `CCN(CC(=O)NC1CC1)C(=O)c1ccc2c(c1)c1c(n2C)CCC(C2CCOCC2)C1` (centres unmarked) [N-(cyclopropylcarbamoylmethyl)-N-ethyl-9-methyl-6-(oxan-4-yl)-5,6,7,8-tetrahydrocarbazole-3-carboxamide], 118% and 106%.

Turning to `CN(CC(=O)NC1CC1)C(=O)c1ccc2c(c1)c1c(n2C)CCC(C2CCOCC2)C1` (centres unmarked) [N-(cyclopropylcarbamoylmethyl)-N,9-dimethyl-6-(oxan-4-yl)-5,6,7,8-tetrahydrocarbazole-3-carboxamide], the “hCB1 EMax” value was 107%. Regarding `CCN(CC(=O)NCCO)C(=O)c1ccc2c(c1)c1c(n2S(=O)(=O)CC)CCC(C2CCOCC2)C1` (centres unmarked) [N-ethyl-9-ethylsulfonyl-N-(2-hydroxyethylcarbamoylmethyl)-6-(oxan-4-yl)-5,6,7,8-tetrahydrocarbazole-3-carboxamide], the “hCB1 EMax” value came to 115%. `CNC(=O)CCCN(C)C(=O)c1ccc2c(c1)c1c(n2C)CCC(C2CCOCC2)C1` (centres unmarked) [N,9-dimethyl-N-[3-(methylcarbamoyl)propyl]-6-(oxan-4-yl)-5,6,7,8-tetrahydrocarbazole-3-carboxamide]: the “hCB1 EMax” value is recorded as 121%. With `Cn1c2c(c3cc(C(=O)N4CC[C@H](C(=O)NC5CC5)C4)ccc31)CC(C1CCOCC1)CC2` (stereo partly drawn) [(3S)-N-cyclopropyl-1-[9-methyl-6-(oxan-4-yl)5,6,7,8-tetrahydrocarbazole-3-carbonyl]pyrrolidine-3-carboxamide] the figure was 127%.
